Assay results taken from patent publication US5340806A, “Composition containing organogermanium compound and immunity adjusting agent comprising the composition” (Sanwa Kagaku Kenkyusho Co., Ltd., priority 1984, dated 1994).
Like-named read-outs stand apart in the source and are kept apart here.

Columns and labels:
[1] = tested on: chronic B hepatitis; assay type: in vivo, human patients
Method: (§1) Search on effectiveness of the organogermanium compound to chronic B and non A non B hepatitises and preferable amount of dose thereof.
Therefore, 30 mg, 60 mg and 90 mg/day/body were set. Experimental period of time was set for 12 weeks.
(a) Examination of liver functions (GOT, GPT, A 1-P, and γ-GTP), and
(b) Examination with use of HBV markers (HBe-Ag, HBe-Ab and DNA-P).

[2] = tested on: chronic non A non B hepatitis; assay type: in vivo, human patients; details: 60 mg/day, 12 weeks
Description: Utility or effectiveness of the organogermanium compound is checked in comparison with that of a placebo as a control. Interferons have widely been accepted as drugs for curing chronic hepatitis, but those are injectionally dosed. On the contrary, the organogermanium compound is orally dosed. In recent years, some oral medicines for curing liver diseases have been developed and the effectiveness thereof has been evaluated by using a placebo as its control. Therefore, the "placebo" is selected as the control for the evaluation of the organogermanium compound in question. (b) To patients with non A non B hepatitis: 60 mg/day/body. Experiment period of time was set for 16 weeks for the patients with chronic B hepatitis and for 12 weeks for the patients with non A and non B hepatitis.

[3] = tested on: chronic B hepatitis; experiment: Long term dosing in chronic B hepatitis (In Vivo Utilization Example 4); set-up: species or system human patients; details: for Liver tissue improvement: Ballooning of cell: 4 patients; for Liver tissue improvement: Bridging necrosis: 9 patients; for Liver tissue improvement: Fatty degeneration: 11 patients; for Liver tissue improvement: Moderation of lobule: 15 patients; for Glisson's capsule improvement: Piecemeal necrosis: 17 patients; for Glisson's capsule improvement: Fibrosis: 23 patients; for Glisson's capsule improvement: Round cell infiltration / Liver tissue improvement: Cobwebby necrosis / Liver tissue improvement: Degenerative necrosis in cell / Liver tissue improvement: Mobilization image of Kupfer cell: 24 patients
Method: A capsule containing the organogermanium compound was dosed to patients infected with chronic B hepatitis over a long period of time at a rate of 30 mg/day/body as the effective compound to check safety and effectiveness.
(a) Number of patients for analysis: 34 persons.
(b) Mean dosing period of time: 55 weeks.
(c) Number of patients who continuously dose over 48 weeks: 26 persons.

[4] = tested on: chronic non A non B hepatitis; experiment: Chronic non A non B hepatitis, 30/60/90 mg/day, 12 weeks (Table 4B); assay type: in vivo, human patients
Method: as §1
Therefore, 30 mg, 60 mg and 90 mg/day/body were set. Experimental period of time was set for 12 weeks. […]

[5] = tested on: HIV (Human Immunodeficiency Virus); assay type: in vivo; details: for OKT4/8 ratio: before 0.36±0.03; for OKT4-value: before 463±64/μl
Method: Effects of the organogermanium compound are checked by giving the capsule obtained in Pharmaceutical Composition Preparing Example 7 to 6 patients infected by HIV (Human Immunodeficiency Virus), who are male hemophiliacs (Age: 6 to 22 years old) recognized as asymptomatic carriers, and among them 5 patients were positive to HIV and 1 patient was negative to HIV.
To each patient, the capsule was given in a dose of 80 mg/day for the patients of 10 years old or over and 40 mg/1 day for the patients less than 10 years old, for 9 months. The number of blood lymphocytes, OKT4 -value, OKT8 -value and OKT4/8 ratio, as well as the change in the virus marker (HIV, HIV antigen and HIV antibody) in blood of the patients were monitored. The separation of the HIV was carried out in accordance with the CDC (Communicable Disease Center) method, and the measurement of the HIV antigen was carried out using the Western blotting method.

[6] = tested on: positive Arthus reaction in guinea pigs; experiment: Positive Arthus reaction in guinea pig; assay type: in vivo, Hartley male guinea pigs; details: 30 days, FIG. 11
Method: To 2% egg albumin solution, the same amount of Freund's complete adjuvant was added to prepare an emulsion. The emulsion was injected in 4 times by one time/week to Hartley male guinea pigs at a heel, under the skin and in the femoralis muscle, for sensitization. After 10 days from the final sensitization, 0.1 ml of 1% egg albumin solution was injected under the skin of the back to measure the area of resulting edema. The organogermanium compound was orally dosed for 30 days from the first sensitization in an amount of 0.1, 1.0 and 10 mg/kg/day.

Substance: 3-oxygermylpropionic acid [Compound No. 1]
- Effectiveness (slight or more) ([1]; 30 mg/day): 55%
- General judgement: Improvement (slight or more) ([1]; 30 mg/day): 52%
- HBV markers: Improvement (slight or more) ([1]; 30 mg/day): 36%
- A 1-P change ([1]; 30 mg/day, 12 weeks): .dwnarw. *
- DNA-P change ([1]; 30 mg/day, 12 weeks): .dwnarw. +
- GOT change ([1]; 30 mg/day, 12 weeks): .dwnarw. *
- GPT change ([1]; 30 mg/day, 12 weeks): .dwnarw. +
- HBe-Ab change ([1]; 30 mg/day, 12 weeks): .uparw. *
- HBe-Ag (log conversion) change ([1]; 30 mg/day, 12 weeks): .dwnarw. **
- γ-GTP change ([1]; 30 mg/day, 12 weeks): .dwnarw. *
- Effectiveness (slight or more) ([1]; 60 mg/day): 47%
- General judgement: Improvement (slight or more) ([1]; 60 mg/day): 37%
- HBV markers: Improvement (slight or more) ([1]; 60 mg/day): 27%
- HBe-Ab change ([1]; 60 mg/day, 12 weeks): .uparw. +
- Effectiveness (slight or more) ([1]; 90 mg/day): 47%
- General judgement: Improvement (slight or more) ([1]; 90 mg/day): 43%
- HBV markers: Improvement (slight or more) ([1]; 90 mg/day): 15%
- HBe-Ab change ([1]; 90 mg/day, 12 weeks): .uparw. **
- A/G change [2]: .uparw. +
- GOT change [2]: .dwnarw. ***
- GOT, test versus placebo [2]: ** (S>P)
- GPT change [2]: .dwnarw. ***
- GPT, test versus placebo [2]: ** (S>P)
- Serum albumin change [2]: .dwnarw. **
- γ-GPT change [2]: .dwnarw. *
- γ-GPT, test versus placebo [2]: * (S>P)
- Improvement (objective) ([2]; placebo 10%): 8%
- Improvement (sec. judgement) ([2]; placebo 26%): 51%
- Effectiveness (slight or more) ([2]; placebo 29%): 50%
- Improvement (Jud. by Doc.) ([2]; placebo 29%): 56%
- Improvement (general) ([2]; placebo 32%): 59%
- Improvement (self) ([2]; placebo 48%): 50%
- modification or decomposition in contact with water (control composition (water)): a modification or decomposition occurs
- lapsed time at which disturbance in the absorption spectrum was first observed (control: water in lieu of serum albumin, 25° C): 24 h
- disturbance in the absorption spectrum (control: water, after 60 hours): the disturbance was further increased
- ratio of improvement in functions of liver (at least slight), judgement of doctor in charge ([3]; 30 mg/day/body, mean 55 weeks): 63%
- ratio of improvement in functions of liver (at least slight), secondary judgement of committee ([3]; 30 mg/day/body, mean 55 weeks): 59%
- patients changed to SC (seroconversion) ([3]; among 23 HBe antigen positive): 3 patients
- patients changed to SN (seronegative) ([3]; among 23 HBe antigen positive): 3 patients
- ratio of disappearance of HBe antigen ([3]; among 23 HBe antigen positive): 26%
- Liver tissue improvement: Evaluation ([3]; ≥middle, 3/24): 12.5%
- Liver tissue improvement: Ballooning of cell ([3]; ≥middle): 0%
- Liver tissue improvement: Bridging necrosis ([3]; ≥middle): 22.2%
- Liver tissue improvement: Fatty degeneration ([3]; ≥middle): 0%
- Liver tissue improvement: Moderation of lobule ([3]; ≥middle): 0%
- Glisson's capsule improvement: Piecemeal necrosis ([3]; ≥middle): 17.6%
- Glisson's capsule improvement: Fibrosis ([3]; ≥middle): 8.7%
- Glisson's capsule improvement: Round cell infiltration ([3]; ≥middle): 0%
- Liver tissue improvement: Cobwebby necrosis ([3]; ≥middle): 16.7%
- Liver tissue improvement: Degenerative necrosis in cell ([3]; ≥middle): 16.7%
- Liver tissue improvement: Mobilization image of Kupfer cell ([3]; ≥middle): 16.7%
- Liver tissue improvement: Ballooning of cell ([3]; ≥slight): 50.0%
- Liver tissue improvement: Bridging necrosis ([3]; ≥slight): 33.3%
- Liver tissue improvement: Evaluation ([3]; ≥slight, 10/24): 41.7%
- Liver tissue improvement: Fatty degeneration ([3]; ≥slight): 9.1%
- Liver tissue improvement: Moderation of lobule ([3]; ≥slight): 6.7%
- Glisson's capsule improvement: Piecemeal necrosis ([3]; ≥slight): 29.4%
- Glisson's capsule improvement: Fibrosis ([3]; ≥slight): 17.4%
- Glisson's capsule improvement: Round cell infiltration ([3]; ≥slight): 12.5%
- Liver tissue improvement: Cobwebby necrosis ([3]; ≥slight): 37.5%
- Liver tissue improvement: Degenerative necrosis in cell ([3]; ≥slight): 37.5%
- Liver tissue improvement: Mobilization image of Kupfer cell ([3]; ≥slight): 41.7%
- Effectiveness (slight or more) ([4]; 30 mg/day): 31%
- General judgement: Improvement (slight or more) ([4]; 30 mg/day): 29%
- Safety (quite) ([4]; 30 mg/day): 92%
- Side effect ([4]; 30 mg/day): 8.3%
- Effectiveness (slight or more) ([4]; 60 mg/day): 44%
- General judgement: Improvement (slight or more) ([4]; 60 mg/day): 45%
- Safety (quite) ([4]; 60 mg/day): 91%
- Side effect ([4]; 60 mg/day): 8.8%
- A 1-P change ([4]; 60 mg/day, 12 weeks): .dwnarw. **
- GOT change ([4]; 60 mg/day, 12 weeks): .dwnarw. **
- GPT change ([4]; 60 mg/day, 12 weeks): .dwnarw. *
- Effectiveness (slight or more) ([4]; 90 mg/day): 38%
- General judgement: Improvement (slight or more) ([4]; 90 mg/day): 41%
- Safety (quite) ([4]; 90 mg/day): 90%
- Side effect ([4]; 90 mg/day): 10.0%
- side-effect in clinical observation ([5]; 9 months): did not show any side-effect
- OKT4/8 ratio ([5]; after 1 month): 0.42±0.02
- OKT4-value ([5]; after 2 months): 549 ± 89 µL⁻¹
- OKT4/8 ratio ([5]; after 3 months): 0.51±0.06
- OKT4/8 ratio ([5]; after 6 months): 0.54±0.05
- OKT4-value ([5]; after 6 months): 629 ± 97 µL⁻¹
- OKT8-value ([5]; after 6 months, before 1303±174/μl): 1154 ± 153 µL⁻¹
- number of lymphocytes ([5]; after 6 months, before 2430±311/μl): 2349 ± 312 µL⁻¹
- HIV disappeared (persons) ([5]; among 5 HIV positive patients, dosage over 6 months): 3 persons
- no change in virus marker (persons) ([5]; among 5 HIV positive patients, over 9 months): 2 persons
- change in OKT4-value ([5]; human, in vivo): a certain increasing tendency
- change in OKT4/8 ratio ([5]; human, in vivo): a slow increase in the ratio
- change in OKT8-value ([5]; human, in vivo): a certain decreasing tendency
- change in number of lymphocytes ([5]; human, in vivo): No noticeable change
- some increase in appetite and body weight (persons) ([5]; human, in vivo): 2 persons
- inhibition of phlegmasia (edema area) ([6]; 0.1 mg/kg/day oral): a recognizable inhibition of the phlegmasia
- inhibition of phlegmasia (edema area) ([6]; 1 mg/kg/day oral): a recognizable inhibition of the phlegmasia
